Some results are limits rather than exact numbers.

Data on 3 compounds can be found in patent publication US20240122865A1, “Methods of Protecting RNA” (Pfizer Inc., priority 2021, published 2024).

Holding throughout (assay type): biochemical, Trichoderma atroviride
The subject of experiment [1] is Chi18 model RNA. Kind of experiment: TapeStation Assay, Chi18 model RNA. On the set-up: Conc. chi18#1 / Conc. chi18#2: unit not given here. The settings on record: for % Control N = 1 / % Control N = 2 / % Control Avg.: Chi18 RNA, 20 mM amino acids, 50 mM CAPS pH 11, 50° C. 15 min; for % Control N = 1 / % Control N = 2: vs Time 0; for % Control Avg.: vs Time 0, Avg N=2; for Conc. chi18#1 / Conc. chi18#2: intact Chi18 RNA after 15 min at 50° C.; for Conc. chi18#1: 20 mM amino acids in 50 mM CAPS pH 11, run #1; for Conc. chi18#2: 20 mM amino acids in 50 mM CAPS pH 11, run #2. Summed up:
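Chi18 or FgenL model RNA at 50 ng/μL in 50 mM CAPS pH 11 was mixed with amino acids (stocks in CAPS, readjusted to >pH 11) and heated at 50° C for 0 or 15 minutes; time-0 samples stayed on ice. Intact RNA was measured by capillary electrophoresis with optical detection and compared with a no-degradation baseline.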

Experiment [2] has as its system FgenL mRNA construct. Briefly: Size Exclusion Base Hydrolysis Degradation Assay, FgenL. The settings on record: 25 mM amino acid; for T0 R1 peak area at 250 nm: FgenL 0.1 mg/mL, 50 mM CAPS, T=0, replicate 1; for T2 Avg, peak area as percentage of T=0 / T2 R1 peak area at 250 nm / T10 Avg, peak area as percentage of T=0 / T10 R1 peak area at 250 nm / T24 Avg, peak area as percentage of T=0 / T24 R1 peak area at 250 nm / T0 Avg, peak area as percentage of T=0: FgenL; for T2 Avg, peak area as percentage of T=0 / T2 R1 peak area at 250 nm / T10 Avg, peak area as percentage of T=0 / T10 R1 peak area at 250 nm / T24 Avg, peak area as percentage of T=0 / T24 R1 peak area at 250 nm: 50 mM CAPS pH 11, room temperature; for T2 Avg, peak area as percentage of T=0 / T2 R1 peak area at 250 nm: 2 hrs; for T2 R1 peak area at 250 nm / T10 R1 peak area at 250 nm / T24 R1 peak area at 250 nm: replicate 1; for T10 Avg, peak area as percentage of T=0 / T10 R1 peak area at 250 nm: 10 hrs; for T24 Avg, peak area as percentage of T=0 / T24 R1 peak area at 250 nm: 24 hrs; for T0 Avg, peak area as percentage of T=0: T=0 (reference). Summed up:
(§1)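 mRNA (diluted to 1.0 mg/mL) preincubated 1 h with amino acid, then brought to pH 11 with CAPS and NaOH at room temperature. Intact mRNA quantified by size-exclusion UPLC, peak area at 250 nm in the T=0 elution window, expressed as percentage of T=0 at 2, 10 and 24 hrs.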
In general terms: In gel filtration, larger molecules generally elute earlier.

For experiment [3], the system named is Chi18 mRNA construct. Kind of experiment: Size Exclusion Base Hydrolysis Degradation Assay, Chi18. As to conditions: for T0 R1 peak area at 250 nm: Chi18 0.1 mg/mL, 25 mM amino acid, 50 mM CAPS, T=0, replicate 1; for T2 Avg, peak area as percentage of T=0 / T2 R1 peak area at 250 nm / T10 Avg, peak area as percentage of T=0 / T10 R1 peak area at 250 nm / T24 Avg, peak area as percentage of T=0 / T24 R1 peak area at 250 nm / T0 Avg, peak area as percentage of T=0: Chi18, 25 mM amino acid; for T2 Avg, peak area as percentage of T=0 / T2 R1 peak area at 250 nm / T10 Avg, peak area as percentage of T=0 / T10 R1 peak area at 250 nm / T24 Avg, peak area as percentage of T=0 / T24 R1 peak area at 250 nm: 50 mM CAPS pH 11, room temperature; for T2 Avg, peak area as percentage of T=0 / T2 R1 peak area at 250 nm: 2 hrs; for T2 R1 peak area at 250 nm / T10 R1 peak area at 250 nm / T24 R1 peak area at 250 nm: replicate 1; for T10 Avg, peak area as percentage of T=0 / T10 R1 peak area at 250 nm: 10 hrs; for T24 Avg, peak area as percentage of T=0 / T24 R1 peak area at 250 nm: 24 hrs; for T0 Avg, peak area as percentage of T=0: T=0 (reference). An outline of the steps:
as §1

The target of experiment [4] is Chi18 model RNA. Briefly: Droplet Digital Polymerase Chain Reaction (ddPCR) Assay, Chi18. As to conditions: percent protection, pH 11.0, 30° C., 16 hours, n = 2. Summed up:
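Chi18 (25 fg/μL) or FgenL (10 fg/μL) RNA at pH 11.0 incubated 16 h with amino acids (10-point half-log series, ~300 mM top stock in CAPS), at 30° C or 44° C respectively. Intact RNA reverse-transcribed, ddPCR 5′-positive droplet fraction taken as protection; EC50 from four-parameter logistic fit.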

Experiment [5] relates to FgenL model RNA. As to conditions: percent protection, pH 11.0, 44° C., 16 hours, n = 2.

As a reminder, the EC50 is the concentration giving half of the maximal effect. With `CC(C)C[C@H](N)C(=O)O` [Leucine], in experiment [1], the “% Control N = 1” value stood at 30.8%, the “% Control N = 2” value is recorded as 31.9%, the “% Control Avg.” value worked out at 31.4% and the “Conc. chi18#1” value was 16.4. The “Conc. chi18#2” value in experiment [1] stood at 16.9. For the same compound, in experiment [2], the “T0 R1 peak area at 250 nm” value stood at 13599; the “T2 Avg, peak area as percentage of T=0” value was found to be 27.3%; the “T2 R1 peak area at 250 nm” value was determined as 4569; the “T10 Avg, peak area as percentage of T=0” value is given as 0.0%. Besides, in experiment [2], the “T10 R1 peak area at 250 nm” value was determined as 0; the “T24 Avg, peak area as percentage of T=0” value came out at 0.0%; the “T24 R1 peak area at 250 nm” value came to 0; the “T0 Avg, peak area as percentage of T=0” value was determined as 100.0%. For the same compound, in experiment [3], the “T0 R1 peak area at 250 nm” value turned out to be 43979; the “T2 Avg, peak area as percentage of T=0” value amounted to 60.6%; the “T2 R1 peak area at 250 nm” value is on record as 23370; the “T10 Avg, peak area as percentage of T=0” value turned out to be 26.2%. In addition, in experiment [3], the “T10 R1 peak area at 250 nm” value came to 10474; the “T24 Avg, peak area as percentage of T=0” value stood at 0.0%; the “T24 R1 peak area at 250 nm” value came to 0; the “T0 Avg, peak area as percentage of T=0” value is recorded as 100.0%. In experiment [4], this compound registered an EC50 of more than 25 mM. This compound displayed an EC50 in experiment [5] of more than 30 mM.
Consider `NCCCC[C@H](N)C(=O)O` [Lysine], for which, in experiment [1], the “% Control N = 1” value was determined as 22.0%, the “% Control N = 2” value is reported as 15.5%, the “% Control Avg.” value amounted to 18.7% and the “Conc. chi18#1” value was determined as 11.7. Besides, the “Conc. chi18#2” value in experiment [1] is recorded as 8.18. Further, in experiment [2], the “T0 R1 peak area at 250 nm” value is on record as 17400; the “T2 Avg, peak area as percentage of T=0” value was 0.0%; the “T2 R1 peak area at 250 nm” value is 0; the “T10 Avg, peak area as percentage of T=0” value amounted to 0.0%. In addition, in experiment [2], the “T10 R1 peak area at 250 nm” value came to 0; the “T24 Avg, peak area as percentage of T=0” value worked out at 0.0%; the “T24 R1 peak area at 250 nm” value amounted to 0; the “T0 Avg, peak area as percentage of T=0” value is 100.0%. Moreover, in experiment [3], the “T0 R1 peak area at 250 nm” value came to 24122; the “T2 Avg, peak area as percentage of T=0” value was 0.0%; the “T2 R1 peak area at 250 nm” value worked out at 0; the “T10 Avg, peak area as percentage of T=0” value stood at 0.0%. Besides, in experiment [3], the “T10 R1 peak area at 250 nm” value was 0; the “T24 Avg, peak area as percentage of T=0” value came out at 0.0%; the “T24 R1 peak area at 250 nm” value turned out to be 0; the “T0 Avg, peak area as percentage of T=0” value is recorded as 100.0%. This compound also showed an EC50 in experiment [4] of more than 30 mM. In experiment [5], the 50% effective concentration (EC50) was more than 30 mM.
Take `CSCC[C@H](N)C(=O)O` [Methionine]: in experiment [1], the “% Control N = 1” value is reported as 49.7%, the “% Control N = 2” value stood at 49.7%, the “% Control Avg.” value stood at 49.7% and the “Conc. chi18#1” value is 26.5. Also, in experiment [2], the “T0 R1 peak area at 250 nm” value stood at 15213; the “T2 Avg, peak area as percentage of T=0” value was found to be 24.2%; the “T2 R1 peak area at 250 nm” value is reported as 3658; the “T10 Avg, peak area as percentage of T=0” value was 0.0%. For the same compound, in experiment [2], the “T10 R1 peak area at 250 nm” value was determined as 0; the “T24 Avg, peak area as percentage of T=0” value worked out at 0.0%; the “T24 R1 peak area at 250 nm” value is recorded as 0; the “T0 Avg, peak area as percentage of T=0” value is recorded as 100.0%. For the same compound, in experiment [3], the “T0 R1 peak area at 250 nm” value was found to be 17259; the “T2 Avg, peak area as percentage of T=0” value is on record as 63.5%; the “T2 R1 peak area at 250 nm” value worked out at 8392; the “T10 Avg, peak area as percentage of T=0” value was found to be 40.1%. Moreover, in experiment [3], the “T10 R1 peak area at 250 nm” value was found to be 6837; the “T24 Avg, peak area as percentage of T=0” value was 0.0%; the “T24 R1 peak area at 250 nm” value is on record as 0; the “T0 Avg, peak area as percentage of T=0” value is listed as 100.0%. In experiment [4], this compound showed an EC50 of more than 30 mM. In experiment [5], this compound had an EC50 of more than 30 mM.
